Values of other authors, collected in patent US20100273186A1, “SPLIT MUTANT HYDROLASE FUSION REPORTER AND USES THEREOF” (Promega Corporation, priority 2007, published 2010).

Tested on: Photinus pyralis luciferase

| reduction of activity on addition of cyclic AMP dependent protein kinase catalytic subunit (Waud et al.) | Substance | decrease of activity when phosphorylated (Sala-Newby et al.) |
| --- | --- | --- |
| 30% | LRRASLG |  |
|  | RRFS: Photinus pyralis luciferase mutant, V217R generating site RRFS (SEQ ID NO:11), Sala-Newby et al. | up to 80% |
